Reference: patent US10545133B2, “Molecular signatures of invasive cancer subpopulations” (The Johns Hopkins University, priority 2013, dated 2020)

Columns and labels:
Type in all cases: cell-based, mouse
[1] = test system: MMTV-PyMT tumor organoids; test: Mitosis (pH3) and K14 staining of tumor organoids treated with a mitosis inhibitor; conditions: aphidicolin 10 mM from day 0, 3D collagen matrix
Text: FIG. 4. Lumenal Tumor Cells Acquire Markers of Basal Differentiation (A) Mouse mammary tumor organoids grown in 3D collagen matrix stained with K8 and K14. (B) Bar graph of percentage of tumor organoids with K8 or K14 intensity equal to or greater than 1+ as a function of time. K14 and K8 intensity was quantified into 0 (no or few), 1 (intermediate), or 2 (bright) K14 signal. Data are presented as mean±SD. For K14: n=719 organoids from 5-8 mice per day; for K8: n=269 organoids from 3 mice per day. (C) Mammary tumor organoids grown in 3D collagen matrix stained with p63 and DAPI. (D) The percentage of organoids with nuclei positive for p63 was counted. Data are presented as mean±SD. n=114 organoids from 2 mice per day. (E) Invasion was quantified by scoring protrusive morphology of cancer cells in contact with the ECM. Data are presented as mean±SD. n=916 organoids from 4-7 mice per day. (F) Tumor organoids treated from day 0 with DMSO vehicle or a mitosis inhibitor (aphidicolin 10 mM) stained with K14, pH3, and DAPI. […] (H) K14 intensity scored in vehicle or aphidicolin. K14 intensity was quantified into 0 (no or few), 1 (intermediate), or 2 (bright) K14 signal. n=110 organoids from 2 mice per condition. […] All p values were determined by two-sided t test. *p<0.05. **p<0.01. ***p<0.001. […]

K14+ cells = test: Doxorubicin challenge of mammary carcinoma cells; conditions: challenge with doxorubicin
[2] = test system: MMTV-PyMT tumor organoids; test: Oxytocin contractility experiment
Text: FIG. 8. Leader Cells Are Molecularly Distinct from Normal Differentiated Myoepithelial Cells and Coexpress Lumenal Epithelial Markers, Related to FIG. 1 (A-C) Leader cells from MMTV-PyMT tumor organoids stained with K14 and K8 (A), K8, p63, and phalloidin (B), or E-cadherin (Ecad) and phalloidin (C). Arrow in (A), a K14+K8+ cell. Arrow in (B), a K8+p63+ cell. 75% of leaders were K14+K8+(n=21/28) and 34% of leaders were K8+p63+(n=22/65). Blue arrows in (C), Ecadherin staining at cell-cell contacts between leader and follower cells. […] Data presented as mean±sd. n=3 normal and tumor organoids. **p<0.01, *p<0.05; p values determined by two-sided t test. […] (G) The reduction in organoid area calculated in (F) provides a proxy for oxytocin-dependent contractility. Organoids were incubated in oxytocin at the specified doses, and the change in area was determined. […] N=23-30 organoids per condition from 3 independent experiments. *p<0.005, […]; p values determined by two-sided t test. […]
Normal mammary epithelial organoids and MMTV-PyMT tumor organoids were embedded in 3D collagen I matrix and cultured in FGF2 organoid media for 4 days. Normal and tumor organoids were then monitored by DIC time-lapse microscopy collecting images every 5 min. […]

## C[C@@]1(CO)[C@H](O)CC[C@@]2(C)[C@H]1CC[C@H]1C[C@@H]3C[C@@]12CC[C@]3(O)CO [aphidicolin]
[1]
  increase in K14+ cells (K14 intensity): did not prevent an increase in K14+ cells
  mitosis (pH3+ nuclei per tumor organoid): blocked mitosis completely

## COc1cccc2c1C(=O)c1c(O)c3c(c(O)c1C2=O)C[C@@](O)(C(=O)CO)C[C@@H]3O[C@H]1C[C@H](N)[C@H](O)[C@H](C)O1 [doxorubicin]
K14+ cells
  representation of K14+ cells among the intrinsically resistant cells: strongly overrepresented

## CC[C@H](C)[C@@H]1NC(=O)[C@H](Cc2ccc(O)cc2)NC(=O)[C@@H](N)CSSC[C@@H](C(=O)N2CCC[C@H]2C(=O)N[C@@H](CC(C)C)C(=O)NCC(N)=O)NC(=O)[C@H](CC(N)=O)NC(=O)[C@H](CCC(N)=O)NC1=O [oxytocin]
[2]; normal mammary and MMTV-PyMT tumor organoids, oxytocin at nM concentrations
  time of maximal contraction postincubation: 25 min
[2]; oxytocin 5 and 50 nM, 3D collagen I, day 4
  contraction of leader cells in response to oxytocin: did not contract
